In paper PMC10889512, “Pyrimidine Schiff Bases: Synthesis, Structural Characterization and Recent Studies on Biological Activities” (International Journal of Molecular Sciences, 2024):

Legend:
A172 cell line = test: Comet assay (single-cell gel electrophoresis), A172; assay type: cell-based, human
Description: Single-cell gel electrophoresis was performed to assess the potential genotoxic effect on AGS and A172 after incubation with compound 4b at IC50. This method is based on the ability of damaged DNA to migrate out of the cell during electrophoresis. After DNA staining (Hoechst 33342), the characteristic “comet tail” could be observed under the fluorescence microscope. The damages in 100 randomly selected cells were visually classified into five groups according to the length of the “comet tail”. Group 0 consisted of cells without damaged DNA, while group 4 contained cells with maximally long tails. Based on this, a group damage index (DI) was calculated. The genotoxic effect was found in both examined cell lines. In the case of the A172 cell line, the DNA degradation level seemed to be independent of the incubation time with compound 4b (DNA damage index (DDI) between 77 and 85 over three incubation periods), whereas for AGS cells, genotoxicity was induced in a time-dependent manner (DDI 63, 107, and 111 after 24, 48, and 72 h, respectively).
The comet assay was performed according to the method of Singh et al. with slight modifications. Slides sterilized in 70% ethanol microscope were covered with thin layer of 1% normal melting agarose and left to solidify in a low-humidity environment. Cells were plated in 12-well plates at a density of 1 × 10^5 cells/well and incubated for 24 h in a cell incubator. Next, compound 4b was added in concentrations equal to the IC50 values obtained after the neutral red uptake assay. After 24, 48, and 72 h incubation, cells were harvested, centrifuged, and resuspended in PBS. […] A total of 100 randomly selected cells were scored, and captured comets were classified based on the comet’s tail length as follows: class 0 contained comets with no damaged DNA; class 1, those with low damage; class 2, those with medium damage; class 3, those with high damage; and class 4, those with very high damage. The damage index (DI) was calculated as follows: DI=0×n0+1×n1+2×n2+3×n3+4×n4, n0,1,2,3,4 —the amount of comets in each class.

S. aureus 43300 = test: Antimicrobial activity assay, microdilution; assay type: cell-based, Staphylococcus aureus; conditions: concentration range from 0.5 µg/mL to 256 µg/mL
Description: (§1) In vitro antimicrobial and antifungal activity was screened using microdilution and modified Richard’s medium. The assay was performed for compounds 4a, 4b, 4c, and 4d with seven reference microbial strains from ATTC (E. coli 25922, S. aureus 43300, K. pneumoniae 700603, A. baumannii 19606, P. aeruginosa 27853, E. faecalis 29212, and C. albicans 10231).
(§2) Seven reference strains from the ATCC collection (Escherichia coli 25922, Staphylococcus aureus 43300, Klebsiella pneumoniae 13883, Acinetobacter baumannii 19606, Pseudomonas aeruginosa 27853, Enterococcus faecalis 29212, and Candida albicans 10231) were used. The assay was performed according to a modified version of Richard et al.’s protocol and ISO standards 20776-1:2019 and 16256:2021 [78, 79]. Microdilution with spectrophotometric measurement was used to calculate MIC50 (minimal inhibitory concentration which decreased the microorganisms’ viability to 50%) values. Briefly, compounds were prepared 100× concentrated in DMSO, and during the whole experiment, they were diluted to 1× with TSB. Serial dilutions of tested compounds were made directly on plates at a concentration range of 0.5 to 256 µg/mL. Microorganisms were incubated for 24 h at 37 °C (bacteria) or 25 °C (yeast) on Petri dishes with TSA. The bacteria/yeast suspensions were prepared at a density 5 × 10^5 CFU/mL (for bacteria) or 0.5–2.5 × 10^5 CFU/mL (for yeast) with TSB. Also, appropriate controls were contained in the experiment: the positive control consisted of a specific strain in TSB, and the negative control was TSB alone. To ensure that used strains were not modified and were still responding to antibacterial/antifungal compounds established by EUCAST, additional tests were conducted with levofloxacin, gentamicin, and amphotericin B. Microplates were incubated on a shaker for 24 h at 37 ± 1 °C or 25 ± 1 °C for the bacteria and yeast strains, respectively. After the incubation, spectrophotometric measurement was performed at 580 nm. MIC50 was calculated by comparing the results obtained for experimental sets with positive controls. Next, 50 µL aliquots of 1% (m/v) TTC solution were added to each well. The plates were incubated on the shaker for 24 h at 37/25 °C. In living microbial cells, colourless TTC is converted into red formazan crystals, which allows for visual observation and MBC/MFC (minimal bactericidal/fungicidal concentration) value assessment.

A. baumannii 19606 = test: Antimicrobial activity assay, microdilution; assay type: cell-based, Acinetobacter baumannii; conditions: concentration range from 0.5 µg/mL to 256 µg/mL
Description: as §1, §2

K. pneumoniae 700603 = test: Antimicrobial activity assay, microdilution; assay type: cell-based, Klebsiella pneumoniae; conditions: concentration range from 0.5 µg/mL to 256 µg/mL
Description: as §1, §2

Cc1nc(-c2ccccc2)nc(Nc2ccc(F)cc2)c1C=Nc1cccc(Cl)c1 [compound 4b, 5-{[(3-chlorophenyl)imino]methyl}-N-(4-fluorophenyl)-6-methyl-2-phenylpyrimidin-4-amine]
DNA damage index (A172 cell line; A172, at IC50, 24 h): 77 arbitrary units | DNA damage index (A172 cell line; A172, at IC50, 48 h): 85 arbitrary units | DNA damage index (A172 cell line; A172, at IC50, 72 h): 78 arbitrary units | MIC and MBC/MFC activity (S. aureus 43300): Neither MIC nor MBC/MFC activity was observed | MIC and MBC/MFC activity (A. baumannii 19606): Neither MIC nor MBC/MFC activity was observed | MIC and MBC/MFC activity (K. pneumoniae 700603): Neither MIC nor MBC/MFC activity was observed
